Patent US12630547B2, “RAS protein degraders, pharmaceutical compositions thereof, and their therapeutic applications” (BioTheryX, Inc., priority 2019, dated 2026)

Experiments:
Format in all cases: cell-based
[1] = test system: MOLM-13 cells; test: Cell viability assay (CELLTITER-GLO), MOLM-13 cells; conditions: Homo sapiens, MOLM-13, 72 h; Table 2; compound at 10 μM, 3 days; read-out: Effect on MOLM-13 cell viability (% DMSO)
How it was run: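 Viability, as % of DMSO control, was read by CellTiter-Glo luminescence after a 3-day compound exposure (single dose of 10 μM or 1 μM) at 37 °C. Cells plated at 4,000/well in RPMI 1640 with 10% FBS. Results reported as categories A <10%, B 10–<25%, C 25–<50%, D ≥50%.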

[2] = test system: H358 cells; test: Cell viability assay (CELLTITER-GLO), H358 cells; conditions: Table 4; 3 days
How it was run: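 Luminescent ATP read-out (CellTiter-Glo) after 3-day incubation at 37 °C of H358 cells plated at 4,000/well in RPMI 1640 with 10% FBS. Values are either IC50 bins (A ≤1 μM through D >10 μM) or % of DMSO viability at 10 μM or 1 μM, bins A <10% through D ≥50%.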

[3] = test system: H23 cells; test: Cell viability assay (CELLTITER-GLO), H23 cells; conditions: Table 4; 3 days
How it was run: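 Luminescent CellTiter-Glo readout after 3-day compound treatment (37° C, 5% CO2) of H23 cells plated at 4,000 cells/well in RPMI 1640 plus 10% FBS, DMSO as control. IC50 values given as categorical ranges.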

| Inhibition of H358 cells, IC50 (class) [2] | SMILES | viability at 10 µM [1] [%] | Inhibition of H23 cells, IC50 (class) [3] |
| --- | --- | --- | --- |
| A′ | C=CC(=O)N1C[C@@H]2C(=O)N(CCCCCCCN3CCC(c4cc(F)cc5c4CN(C4CCC(=O)NC4=O)C5=O)CC3)c3cnc4c(F)c(-c5c(O)cccc5F)c(Cl)cc4c3N2C[C@H]1C (stereo partly drawn) [Compound 66, 3-(4-(1-(7-((2R,4aR)-3-Acryloyl-11-chloro-9-fluoro-10-(2-fluoro-6-hydroxyphenyl)-2-methyl-5-oxo-1,2,3,4,4a,5-hexahydro-6H-pyrazino[1′,2′:4,5]pyrazino[2,3-c]quinolin-6-yl)heptyl)piperidin-4-yl)-6-fluoro-1-oxoisoindolin-2-yl)piperidine-2,6-dione] | < 10 | B′ |
| B′ | CCC(=O)N1C[C@@H]2C(=O)N(CCCCCCCN3CCC(c4cc(F)cc5c4CN(C4CCC(=O)NC4=O)C5=O)CC3)c3cnc4c(F)c(-c5c(O)cccc5F)c(Cl)cc4c3N2C[C@H]1C (stereo partly drawn) [Compound 67, 3-(4-(1-(7-((2R,4aR)-11-Chloro-9-fluoro-10-(2-fluoro-6-hydroxyphenyl)-2-methyl-5-oxo-3-propionyl-1,2,3,4,4a,5-hexahydro-6H-pyrazino[11′,2′:4,5]pyrazino[2,3-c]quinolin-6-yl)heptyl)piperidin-4-yl)-6-fluoro-1-oxoisoindolin-2-yl)piperidine-2,6-dione] | < 10 | B′ |
| A′ | C=CC(=O)N1CCN(c2ncnc3c(F)c(-c4c(F)cccc4OCCCCCCCN4CCC(c5scc6c5CN(C5CCC(=O)NC5=O)C6=O)CC4)c(Cl)cc23)CC1 (stereo not drawn) [Compound 70, 3-(1-(1-(7-(2-(4-(4-Acryloylpiperazin-1-yl)-6-chloro-8-fluoroquinazolin-7-yl)-3-fluorophenoxy)heptyl)piperidin-4-yl)-4-oxo-4H-thieno[3,4-c]pyrrol-5(6H)-yl)piperidine-2,6-dione] | < 10 | B′ |
| B′ | CCC(=O)N1CCN(c2ncnc3c(F)c(-c4c(F)cccc4OCCCCCCCN4CCC(c5scc6c5CN(C5CCC(=O)NC5=O)C6=O)CC4)c(Cl)cc23)CC1 (stereo not drawn) [Compound 71, 3-(1-(1-(7-(2-(6-chloro-8-fluoro-4-(4-propionylpiperazin-1-yl)quinazolin-7-yl)-3-fluorophenoxy)heptyl)piperidin-4-yl)-4-oxo-4H-thieno[3,4-c]pyrrol-5(6H)-yl)piperidine-2,6-dione] | < 10 | B′ |
| A′ | C=CC(=O)N1CCN(c2nc(=O)n(-c3ccccc3C(C)C)c3nc(-c4c(F)cccc4OCCCCCCCN4CCC(c5cc(F)cc6c5CN(C5CCC(=O)NC5=O)C6=O)CC4)c(F)cc23)[C@@H](C)C1 (stereo partly drawn) [Compound 72, 3-(4-(1-(7-(2-(4-((S)-4-Acryloyl-2-methylpiperazin-1-yl)-6-fluoro-1-(2-isopropylphenyl)-2-oxo-1,2-dihydropyrido[2,3-d]pyrimidin-7-yl)-3-fluorophenoxy)heptyl)piperidin-4-yl)-6-fluoro-1-oxoisoindolin-2-yl)piperidine-2,6-dione] | < 10 | B′ |
| B′ | CCC(=O)N1CCN(c2nc(=O)n(-c3ccccc3C(C)C)c3nc(-c4c(F)cccc4OCCCCCCCN4CCC(c5cc(F)cc6c5CN(C5CCC(=O)NC5=O)C6=O)CC4)c(F)cc23)[C@@H](C)C1 (stereo partly drawn) [Compound 73, 3-(6-Fluoro-4-(1-(7-(3-fluoro-2-(6-fluoro-1-(2-isopropylphenyl)-4-((S)-2-methyl-4-propionylpiperazin-1-yl)-2-oxo-1,2-dihydropyrido[2,3-d]pyrimidin-7-yl)phenoxy)heptyl)piperidin-4-yl)-1-oxoisoindolin-2-yl)piperidine-2,6-dione] | 10 to 25 | B′ |
| C′ | C=CC(=O)N1CCN(c2nc(OCCCCCCCN3CCC(c4cc(F)cc5c4CN(C4CCC(=O)NC4=O)C5=O)CC3)nc3c2CCN(c2cc(O)cc4ccccc24)C3)CC1 (stereo not drawn) [Compound 75, 3-(4-(1-(7-((4-(4-Acryloylpiperazin-1-yl)-7-(3-hydroxynaphthalen-1-yl)-5,6,7,8-tetrahydropyrido[3,4-d]pyrimidin-2-yl)oxy)heptyl)piperidin-4-yl)-6-fluoro-1-oxoisoindolin-2-yl)piperidine-2,6-dione] | 25 to 50 | B′ |
| B′ | C=CC(=O)N1CCN(c2ncnc3c(F)c(-c4c(F)cccc4OCCCCCCCCCCC(=O)N[C@H](C(=O)N4C[C@H](O)C[C@H]4C(=O)NCc4ccc(-c5scnc5C)cc4)C(C)(C)C)c(Cl)cc23)CC1 [Compound 76, (2S,4R)-1-((2S)-2-(11-(2-(4-(4-Acryloylpiperazin-1-yl)-6-chloro-8-fluoroquinazolin-7-yl)-3-fluorophenoxy)undecanamido)-3,3-dimethylbutanoyl)-4-hydroxy-N-(4-(4-methylthiazol-5-yl)benzyl)pyrrolidine-2-carboxamide] | < 10 | B′ |
| C′ | CCC(=O)N1CCN(c2ncnc3c(F)c(-c4c(F)cccc4OCCCCCCCCCCC(=O)N[C@H](C(=O)N4C[C@H](O)C[C@H]4C(=O)NCc4ccc(-c5scnc5C)cc4)C(C)(C)C)c(Cl)cc23)CC1 [Compound 77, (2S,4R)-1-((2S)-2-(11-(2-(6-Chloro-8-fluoro-4-(4-propionylpiperazin-1-yl)quinazolin-7-yl)-3-fluorophenoxy)undecanamido)-3,3-dimethylbutanoyl)-4-hydroxy-N-(4-(4-methylthiazol-5-yl)benzyl)pyrrolidine-2-carboxamide] | ≥ 50 | D′ |
| B′ | CCC(=O)N1CCN(c2ncnc3c(F)c(-c4c(F)cccc4OCCCCCCC(=O)N[C@H](C(=O)N4C[C@H](O)C[C@H]4C(=O)NCc4ccc(-c5scnc5C)cc4)C(C)(C)C)c(Cl)cc23)CC1 [Compound 78, (2S,4R)-1-((2S)-2-(7-(2-(6-Chloro-8-fluoro-4-(4-propionylpiperazin-1-yl)quinazolin-7-yl)-3-fluorophenoxy)heptanamido)-3,3-dimethylbutanoyl)-4-hydroxy-N-(4-(4-methylthiazol-5-yl)benzyl)pyrrolidine-2-carboxamide] | < 10 | C′ |
| B′ | O=C1CCC(N2Cc3c(cc(F)cc3C3CCN(CCCCCCCOc4cccc(F)c4-c4c(Cl)cc5c(N6CCN(C(=O)C7CCNC7)CC6)ncnc5c4F)CC3)C2=O)C(=O)N1 (stereo not drawn) [Compound 79, 3-(4-(1-(7-(2-(6-Chloro-8-fluoro-4-(4-(pyrrolidine-3-carbonyl)piperazin-1-yl)quinazolin-7-yl)-3-fluorophenoxy)heptyl)piperidin-4-yl)-6-fluoro-1-oxoisoindolin-2-yl)piperidine-2,6-dione] | < 10 | B′ |
| B′ | CC(C)/C=C(\C#N)C(=O)N1CCN(c2ncnc3c(F)c(-c4c(F)cccc4OCCCCCCCN4CCC(c5cc(F)cc6c5CN(C5CCC(=O)NC5=O)C6=O)CC4)c(Cl)cc23)CC1 (stereo not drawn) [Compound 80, (E)-2-(4-(6-Chloro-7-(2-((7-(4-(2-(2,6-dioxopiperidin-3-yl)-6-fluoro-1-oxoisoindolin-4-yl)piperidin-1-yl)heptyl)oxy)-6-fluorophenyl)-8-fluoroquinazolin-4-yl)piperazine-1-carbonyl)-4-methylpent-2-enenitrile] | < 10 | B′ |
| C′ | O=C1CCC(N2Cc3c(cc(F)cc3C3CCN(CCCCCCCOc4cccc(F)c4-c4c(Cl)cc5c(N6CCN(C(=O)C7COC7)CC6)ncnc5c4F)CC3)C2=O)C(=O)N1 (stereo not drawn) [Compound 81, 3-(4-(1-(7-(2-(6-Chloro-8-fluoro-4-(4-(oxetane-3-carbonyl)piperazin-1-yl)quinazolin-7-yl)-3-fluorophenoxy)heptyl)piperidin-4-yl)-6-fluoro-1-oxoisoindolin-2-yl)piperidine-2,6-dione] | ≥ 50 | C′ |
| B′ | C=C(F)C(=O)N1CCN(c2ncnc3c(F)c(-c4c(F)cccc4OCCCCCCCN4CCC(c5cc(F)cc6c5CN(C5CCC(=O)NC5=O)C6=O)CC4)c(Cl)cc23)CC1 (stereo not drawn) [Compound 82, 3-(4-(1-(7-(2-(6-Chloro-8-fluoro-4-(4-(2-fluoroacryloyl)piperazin-1-yl)quinazolin-7-yl)-3-fluorophenoxy)heptyl)piperidin-4-yl)-6-fluoro-1-oxoisoindolin-2-yl)piperidine-2,6-dione] | < 10 | B′ |
| B′ | NC(=O)N1CCN(c2ncnc3c(F)c(-c4c(F)cccc4OCCCCCCCN4CCC(c5cc(F)cc6c5CN(C5CCC(=O)NC5=O)C6=O)CC4)c(Cl)cc23)CC1 (stereo not drawn) [Compound 83, 4-(6-Chloro-7-(2-((7-(4-(2-(2,6-dioxopiperidin-3-yl)-6-fluoro-1-oxoisoindolin-4-yl)piperidin-1-yl)heptyl)oxy)-6-fluorophenyl)-8-fluoroquinazolin-4-yl)piperazine-1-carboxamide] | < 10 | B′ |
